Data on eight molecules can be found in patent US3991204A, “Method of using benzopyrans as antiparasitic agents” (American Cyanamid Company, priority 1975, dated 1976).

Values joined by “and” are separate entries in the source; they are usually repeats but may differ in a detail not shown here. Identical values can stand only once.

The subject of one test is Ascaris suum. Briefly: Efficacy against Ascaris suum in mice (lung pathology and lung larvae versus controls). The format is in vivo, Ascaris suum (host: Swiss Webster mice). Details: key: Active; Inactive. On the procedure:
(§1) Efficacy of 4-Hydroxy-2-oxo-2H-1-benzopyran-3-carboxanilide derivatives against various helminths in mice
(§2) Six weeks old Swiss Webster mice are orally inoculated with Nematospiroides dubius, Hymenolepis nana and Aspicularis tetraptera. Eighteen days postinoculation the mice are treated with the appropriate drug diet level for 7 days. For single oral dose administration the compound is thoroughly mixed with 0.1 percent agar and orally intubated at the required dosage 22 days postinfection. 10-15,000 Ascaris suum infective eggs are administered to mice after 1 day on diet medication or 3 days prior to single oral dose administration. Determination of efficacy is done by counting all the N. dubius in treated mice versus the control average. For H. nana and A. tetraptera the absence or presence of these parasites in treated mice is the criterior for determining activity. For A. suum activity the following criterion was used. Reduction or elimination of lung pathology and the total number of lung larvae from treated animals was compared to lung larvae recovered from controls.

For a further test, the system named is Hymenolepis nana. Briefly: Efficacy against Hymenolepis nana in mice (absence or presence of parasites). Format: in vivo, Hymenolepis nana (host: Swiss Webster mice). Details: key: Active; Inactive. On the procedure: as §1, §2
The test system of a further test is Nematospiroides dubius. Briefly: Efficacy against Nematospiroides dubius in mice (worm count in treated mice versus control average). Format: in vivo, Nematospiroides dubius (host: Swiss Webster mice). Details: key to % Eff. N.d. (class symbol): Active; Inactive. The following applies: for inhibition in vivo at 0.05 % / inhibition in vivo at 0.1 %: po, 168 h; for inhibition in vivo at 0.05 %: drug diet 0.05% for 7 days; for inhibition in vivo at 0.1 %: drug diet 0.1% for 7 days. On the procedure:
as §1, §2

In the next test the test system is Aspicularis tetraptera. Briefly: Efficacy against Aspicularis tetraptera in mice (absence or presence of parasites). Format: in vivo, Aspicularis tetraptera (host: Swiss Webster mice). Details: key: Active; Inactive. On the procedure: as §1, §2
Another test concerns Ostertagia circumcincta. Briefly: Evaluation (efficacy) test in experimentally inoculated sheep, Ostertagia circumcincta. The format is in vivo, Ostertagia circumcincta (host: lambs). Conditions: intraruminal dose 50 mg/kg. On the procedure: (§3) Evaluation (Efficacy) Test in Sheep
(§4) Lambs are experimentally inoculated with Haemonchus contortus (H.c.), Trichostrongylus axei (T.a.), Ostertagia circumcincta (O.c) and Trichostrongylus colubriformis (T.c.) species. At patency of the parasites the lambs are treated with 50 mg/kg of body weight with the compound under test administered as an intraruminal injection in 0.2 percent agar. Three days post treatment treated lambs and similary inoculated controls are necropsied and examined for parasites. Percent efficacy is calculated by comparing the average worm burden in the treated group with the average worm burden in the control group.

Another test relates to Cooperia punctata. Briefly: Efficacy against naturally occurring parasitic infestation in sheep, Cooperia punctata. Format: in vivo, Cooperia punctata (host: lambs). The following applies: naturally infected sheep, single oral dose 100 mg/kg. On the procedure: (§5) Efficacy of 3',4'-Dichloro-4-hydroxy-2-oxo-2H-1-benzopyran-3 -carboxanilideagainst Naturally Occurring Parasitic
(§6) Lambs naturally infected with a number of parasitic species are treated with 100 mg/kg of body weight with the compound under tested administration as a single oral dose. After treatment, 24 hour fecal outputs for 3 days are collected from each animal and examined for the passage of parasites. Three days post treatment the lambs are necropsied and examined for parasites. Percent efficacy is calculated using the formula: [formula]

For test [1], the system named is Trichostrongylus colubriformis. Briefly: Efficacy against naturally occurring parasitic infestation in sheep, Trichostrongylus colubriformis male. Conditions: naturally infected sheep, single oral dose 100 mg/kg. The format is in vivo, Trichostrongylus colubriformis (host: lambs). On the procedure: as §5, §6
Test [2] has as its system Trichostrongylus colubriformis. Briefly: Evaluation (efficacy) test in experimentally inoculated sheep, Trichostrongylus colubriformis. Format: in vivo, Trichostrongylus colubriformis (host: lambs). Conditions: intraruminal dose 50 mg/kg. On the procedure:
as §3, §4

The test system of another test is Haemonchus contortus. Briefly: Evaluation (efficacy) test in experimentally inoculated sheep, Haemonchus contortus. The format is in vivo, Haemonchus contortus (host: lambs). Conditions: intraruminal dose 50 mg/kg. On the procedure:
as §3, §4

The subject of test [3] is Trichostrongylus vitrinus. Briefly: Efficacy against naturally occurring parasitic infestation in sheep, Trichostrongylus vitrinus male. Conditions: naturally infected sheep, single oral dose 100 mg/kg. Format: in vivo, Trichostrongylus vitrinus (host: lambs). On the procedure: as §5, §6
Another test concerns Bunostomum. Briefly: Efficacy against naturally occurring parasitic infestation in sheep, Bunostomum. Format: in vivo, Bunostomum (host: lambs). Conditions: naturally infected sheep, single oral dose 100 mg/kg. On the procedure:
as §5, §6

For another test, the system named is Trichostrongylus axei. Briefly: Evaluation (efficacy) test in experimentally inoculated sheep, Trichostrongylus axei. The format is in vivo, Trichostrongylus axei (host: lambs). The following applies: intraruminal dose 50 mg/kg. On the procedure:
as §3, §4

The subject of test [4] is Trichostrongylus colubriformis. Briefly: Evaluation against Trichostrongylus colubriformis in the Mongolian gerbil. The format is in vivo, Trichostrongylus colubriformis (host: Mongolian gerbil). On the procedure: Evaluation of 3',4'-Dichloro-4-hydroxy-2-oxo-2H-1-benzopyran-3-carboxanilide against Trichlostrongylus colubriformis in the Mongolian Gerbil Monogolian gerbils are inoculated with 2000 T. colubriformis larvae each. Fourteen to 94 days post inoculation the gerbils are treated with the appropiate drug level diet for 6 days. For single oral dose administration the compound is thoroughly mixed with 0.1 percent agar and orally intubated at the required level. After treatment, 24 hour fecal outputs for 3 days are collected from each animal and examined for passage of parasites. Three days post treatment the gerbils are necropsied and examined for parasites. Percent efficacy is calculated using the formula: [formula]

The mark [5] stands for this setting: Heligmosomoides polygyrus, read-out: % Eff. N.d.

Turning to `O=C(Nc1cccc(Cl)c1)c1c(O)c2ccccc2oc1=O` [Example 2], the A.s. activity result in the test on Ascaris suum (drug diet 0.05% for 7 days) and in the test with Ascaris suum (drug diet 0.1% for 7 days) was “i” throughout. For the same molecule, the H.n. activity result was “i” with Hymenolepis nana (drug diet 0.05% for 7 days) and “A” in the test on Hymenolepis nana (drug diet 0.1% for 7 days). For the same molecule, in the test on Nematospiroides dubius (setting [5]), the inhibition in vivo at 0.05 % worked out at 46%. Besides, the inhibition in vivo at 0.1 % in the test with Nematospiroides dubius (setting [5]) came out at 65%. Moreover, the A.t. activity result was “i” in the test with Aspicularis tetraptera (drug diet 0.05% for 7 days) and “A” in the test on Aspicularis tetraptera (drug diet 0.1% for 7 days).

For `O=C(Nc1ccc(Cl)c(Cl)c1)c1c(O)c2ccccc2oc1=O` [Example 1, 3',4'-Dichloro-4-hydroxy-2-oxo-2H-1-benzopyran-3-carboxanilide], the “% Efficacy O.c.” value in the test with Ostertagia circumcincta is on record as 86%. Besides, the A.s. activity result was “i” in the test on Ascaris suum (drug diet 0.05% for 7 days); “i” in the test with Ascaris suum (drug diet 0.1% for 7 days); “i” in the test on Ascaris suum (single oral dose 100 mg/kg); “A” with Ascaris suum (single oral dose 500 mg/kg); “A” in the test on Ascaris suum (single oral dose 1000 mg/kg); “A” in the test on Ascaris suum (single oral dose 2000 mg/kg). For the same molecule, the H.n. activity entry in the test with Hymenolepis nana (drug diet 0.05% for 7 days) is reported as “i”; with Hymenolepis nana (drug diet 0.1% for 7 days), “A”; with Hymenolepis nana (single oral dose 100 mg/kg), “i”; in the test on Hymenolepis nana (single oral dose 500 mg/kg), “i”; with Hymenolepis nana (single oral dose 1000 mg/kg), “i”. Also, in the test on Cooperia punctata, the “% Efficacy C.p.” value is recorded as 100%. The “% Efficacy T.c. Male” value in [1] is 85% and 61%. Further, in test [2], the “% Efficacy T.c.” value is given as 35%. Besides, the “% Efficacy H.c.” value in the test with Haemonchus contortus was 100%. Further, the “% Efficacy T.v. Male” value in test [3] was 100% and 79%. Moreover, in the test with Nematospiroides dubius (setting [5]), the inhibition in vivo at 0.05 % was found to be 85%. Further, the inhibition in vivo at 0.1 % in the test on Nematospiroides dubius (setting [5]) worked out at 100%. The inhibition in vivo at 2000 mg/kg with Nematospiroides dubius (Heligmosomoides polygyrus, single oral dose 2000 mg/kg, read-out: % Eff. N.d.) was 55%. Further, the “% Eff. N.d. (class symbol)” value in the test on Nematospiroides dubius (single oral dose 100 mg/kg), with Nematospiroides dubius (single oral dose 500 mg/kg) and with Nematospiroides dubius (single oral dose 1000 mg/kg) was “i” each time. Further, the “% Efficacy Bun.” value in the test on Bunostomum came to 100%. Moreover, the “% Efficacy T.a.” value in the test on Trichostrongylus axei came out at 0%. For the same molecule, the “% Efficacy” value in test [4] (0.05% drug in feed × 6 Days) is reported as 82%; in [4] (single oral dose 100 mg/kg) it was 40%; in test [4] (single oral dose 500 mg/kg) it was 100%. In addition, the A.t. activity entry with Aspicularis tetraptera (drug diet 0.1% for 7 days) is recorded as “A”; in the test on Aspicularis tetraptera (single oral dose 100 mg/kg), “A”; in the test with Aspicularis tetraptera (single oral dose 500 mg/kg) it was “A”; in the test on Aspicularis tetraptera (single oral dose 1000 mg/kg) it was “i”.

`O=C(Nc1ccc(F)cc1F)c1c(O)c2ccccc2oc1=O` [Example 6]: the A.s. activity result in the test with Ascaris suum (drug diet 0.1% for 7 days) was “i”. Moreover, the H.n. activity result with Hymenolepis nana (drug diet 0.1% for 7 days) was “i”. Moreover, the inhibition in vivo at 0.1 % with Nematospiroides dubius (setting [5]) amounted to 94%. The A.t. activity result in the test on Aspicularis tetraptera (drug diet 0.1% for 7 days) is recorded as “A”.

Take `O=C(Nc1cc(F)ccc1F)c1c(O)c2ccccc2oc1=O` [Example 7]: the A.s. activity result with Ascaris suum (drug diet 0.1% for 7 days) is listed as “i”. Moreover, the H.n. activity entry with Hymenolepis nana (drug diet 0.1% for 7 days) is reported as “i”. Moreover, the inhibition in vivo at 0.1 % with Nematospiroides dubius (setting [5]) amounted to 41%. The A.t. activity result in the test on Aspicularis tetraptera (drug diet 0.1% for 7 days) is reported as “i”.

`O=C(Nc1ccc(F)cc1)c1c(O)c2ccccc2oc1=O` [Example 3]: the A.s. activity entry in the test with Ascaris suum (drug diet 0.1% for 7 days) is reported as “i”. Besides, the H.n. activity entry with Hymenolepis nana (drug diet 0.1% for 7 days) was “A”. Moreover, the inhibition in vivo at 0.1 % in the test on Nematospiroides dubius (setting [5]) was 54%. The A.t. activity entry in the test on Aspicularis tetraptera (drug diet 0.1% for 7 days) was “i”.

Take `O=C(Nc1ccccc1F)c1c(O)c2ccccc2oc1=O` [Example 5]: the A.s. activity result with Ascaris suum (drug diet 0.1% for 7 days) is given as “i”. Further, the H.n. activity result in the test with Hymenolepis nana (drug diet 0.1% for 7 days) is reported as “i”. For the same molecule, the inhibition in vivo at 0.1 % with Nematospiroides dubius (setting [5]) was 66%. Also, the A.t. activity result in the test with Aspicularis tetraptera (drug diet 0.1% for 7 days) was “i”.

In the case of `O=C(Nc1cccc(F)c1)c1c(O)c2ccccc2oc1=O` [Example 4], the A.s. activity entry in the test on Ascaris suum (drug diet 0.1% for 7 days) was “i”. The H.n. activity entry with Hymenolepis nana (drug diet 0.1% for 7 days) is recorded as “i”. Also, in the test with Nematospiroides dubius (setting [5]), the inhibition in vivo at 0.1 % was found to be 77%. In addition, the A.t. activity result in the test on Aspicularis tetraptera (drug diet 0.1% for 7 days) was “i”.

Regarding `O=C(Nc1ccc(Cl)cc1Cl)c1c(O)c2ccccc2oc1=O` [Example 8], the A.s. activity result with Ascaris suum (drug diet 0.05% for 7 days) and in the test on Ascaris suum (drug diet 0.1% for 7 days) was “i” each time. Besides, the H.n. activity entry with Hymenolepis nana (drug diet 0.05% for 7 days) and in the test with Hymenolepis nana (drug diet 0.1% for 7 days) was “i” in each case. The inhibition in vivo at 0.05 % in the test with Nematospiroides dubius (setting [5]) came out at 94%. In the test with Nematospiroides dubius (setting [5]), the inhibition in vivo at 0.1 % came out at 100%. Besides, the A.t. activity result in the test with Aspicularis tetraptera (drug diet 0.05% for 7 days) and in the test on Aspicularis tetraptera (drug diet 0.1% for 7 days) was “A” each time.
